The series is described as follows: xn = mol fraction of the nth substance listed. The settings on record: 101 kPa, Liquid, x1 = 0.

Take `CCCCCCCCn1cc[n+](C)c1.O=S(=O)([N-]S(=O)(=O)C(F)(F)F)C(F)(F)F` + CO: the binary diffusion coefficient by setting is: (283 K) 9.9e-10 m2/s; (298 K) 1.32e-09 m2/s; (313 K) 1.59e-09 m2/s; (323 K) 1.83e-09 m2/s; (333 K) 2.12e-09 m2/s.

Turning to `CCCC[n+]1ccn(C)c1.O=S(=O)([N-]S(=O)(=O)C(F)(F)F)C(F)(F)F` + O, the binary diffusion coefficient turned out to be 6e-10 m2/s (283 K); 8.5e-10 m2/s (298 K); 9.6e-10 m2/s (303 K); 1.16e-09 m2/s (313 K); 1.47e-09 m2/s (323 K); 1.74e-09 m2/s (333 K).

`CCCCCC[n+]1ccn(C)c1.O=S(=O)([N-]S(=O)(=O)C(F)(F)F)C(F)(F)F` + O: the binary diffusion coefficient turned out to be 5.8e-10 m2/s (283 K); 8.3e-10 m2/s (298 K); 9e-10 m2/s (303 K); 1.15e-09 m2/s (313 K); 1.39e-09 m2/s (323 K); 1.63e-09 m2/s (333 K).

With `CCCCn1cc[n+](C)c1.[Cl-]` [1-butyl-3-methylimidazolium chloride] + O, the binary diffusion coefficient is, setting by setting: (283 K) 8.3e-10 m2/s; (298 K) 1.18e-09 m2/s; (303 K) 1.32e-09 m2/s; (313 K) 1.66e-09 m2/s; (323 K) 2.01e-09 m2/s; (333 K) 2.4e-09 m2/s.

`CCCC[n+]1ccn(C)c1.O=S(=O)([N-]S(=O)(=O)C(F)(F)F)C(F)(F)F` + CC#N: the binary diffusion coefficient (283 K) was 1.7e-09 m2/s; the binary diffusion coefficient (298 K) is 2.22e-09 m2/s; the binary diffusion coefficient (313 K) came to 2.7e-09 m2/s; the binary diffusion coefficient (323 K) is 3.07e-09 m2/s; the binary diffusion coefficient (333 K) turned out to be 3.45e-09 m2/s.

With `CCn1cc[n+](C)c1.O=S(=O)([N-]S(=O)(=O)C(F)(F)F)C(F)(F)F` + CC#N, the binary diffusion coefficient reads like this: (283 K) 1.79e-09 m2/s; (298 K) 2.29e-09 m2/s; (313 K) 2.78e-09 m2/s; (323 K) 3.15e-09 m2/s; (333 K) 3.48e-09 m2/s.

As for `CCCCCCCCn1cc[n+](C)c1.O=S(=O)([N-]S(=O)(=O)C(F)(F)F)C(F)(F)F` + CC#N, the binary diffusion coefficient was 1.62e-09 m2/s (283 K); 2e-09 m2/s (298 K); 2.31e-09 m2/s (313 K); 2.57e-09 m2/s (323 K); 2.86e-09 m2/s (333 K).

As for `CCn1cc[n+](C)c1.O=S(=O)([N-]S(=O)(=O)C(F)(F)F)C(F)(F)F` + CO, the binary diffusion coefficient is, setting by setting: (283 K) 1.17e-09 m2/s; (298 K) 1.6e-09 m2/s; (313 K) 2.03e-09 m2/s; (323 K) 2.3e-09 m2/s; (333 K) 2.69e-09 m2/s.

As to `CCCCCC[n+]1ccn(C)c1.O=S(=O)([N-]S(=O)(=O)C(F)(F)F)C(F)(F)F` + CC#N, the binary diffusion coefficient reads like this: (283 K) 1.67e-09 m2/s; (298 K) 2.1e-09 m2/s; (313 K) 2.51e-09 m2/s; (323 K) 2.74e-09 m2/s; (333 K) 2.99e-09 m2/s.

Consider `CCCCCC[n+]1ccn(C)c1.O=S(=O)([N-]S(=O)(=O)C(F)(F)F)C(F)(F)F` + CO, for which the binary diffusion coefficient (283 K) stood at 1.05e-09 m2/s; the binary diffusion coefficient (298 K) worked out at 1.34e-09 m2/s; the binary diffusion coefficient (313 K) came out at 1.64e-09 m2/s; the binary diffusion coefficient (323 K) was determined as 1.99e-09 m2/s; the binary diffusion coefficient (333 K) worked out at 2.21e-09 m2/s.

With `CCCCCCCCn1cc[n+](C)c1.O=S(=O)([N-]S(=O)(=O)C(F)(F)F)C(F)(F)F` + O, the binary diffusion coefficient came out at 5.7e-10 m2/s (283 K); 8.1e-10 m2/s (298 K); 8.7e-10 m2/s (303 K); 1.05e-09 m2/s (313 K); 1.31e-09 m2/s (323 K); 1.47e-09 m2/s (333 K).

With `CCCCn1cc[n+](C)c1.F[B-](F)(F)F` [1-butyl-3-methylimidazolium tetrafluoroborate] + O, the binary diffusion coefficient is, setting by setting: (283 K) 7.7e-10 m2/s; (298 K) 1.14e-09 m2/s; (303 K) 1.28e-09 m2/s; (313 K) 1.55e-09 m2/s; (323 K) 1.97e-09 m2/s; (333 K) 2.26e-09 m2/s.

For `CCCC[n+]1ccn(C)c1.O=S(=O)([N-]S(=O)(=O)C(F)(F)F)C(F)(F)F` + CO, the binary diffusion coefficient (283 K) is 1.11e-09 m2/s; the binary diffusion coefficient (298 K) came out at 1.48e-09 m2/s; the binary diffusion coefficient (313 K) amounted to 1.88e-09 m2/s; the binary diffusion coefficient (323 K) turned out to be 2.15e-09 m2/s; the binary diffusion coefficient (333 K) worked out at 2.43e-09 m2/s.

Regarding `CCn1cc[n+](C)c1.O=S(=O)([N-]S(=O)(=O)C(F)(F)F)C(F)(F)F` + O, the binary diffusion coefficient was 6.1e-10 m2/s (283 K); 8.9e-10 m2/s (298 K); 9.8e-10 m2/s (303 K); 1.27e-09 m2/s (313 K); 1.55e-09 m2/s (323 K); 1.85e-09 m2/s (333 K).

The values above are taken from the NIST ThermoML archive (doi:10.1021/je800817b).
